Data published in ChEMBL document CHEMBL3046781, “Resistance of Helicoverpa assulta (Guenée) (Lepidoptera: Noctuidae) to fenvalerate, phoxim and methomyl in China” (2009).

How the values were obtained:
Type in all cases: functional
Helicoverpa assulta [1] = assay: Resistance factor, ratio of LD50 for sixth-instar larvae of Helicoverpa assulta GZ1 to LD50 for sixth-instar larvae of Helicoverpa assulta at 39 to 12630 mg/l
Helicoverpa assulta [2] = assay: Insecticidal activity against sixth-instar larvae of Helicoverpa assulta GZ3 at 39 to 12630 mg/l after 48 hr by chi-squared analysis
Helicoverpa assulta [3] = assay: Insecticidal activity against sixth-instar larvae of Helicoverpa assulta YN8 at 39 to 12630 mg/l after 48 hr by chi-squared analysis
Helicoverpa assulta [4] = assay: Insecticidal activity against sixth-instar larvae of Helicoverpa assulta AH1 at 39 to 12630 mg/l after 48 hr by chi-squared analysis
Helicoverpa assulta [5] = assay: Resistance factor, ratio of LD50 for sixth-instar larvae of Helicoverpa assulta GZ5 to LD50 for sixth-instar larvae of Helicoverpa assulta at 39 to 12630 mg/l
Helicoverpa assulta [6] = assay: Resistance factor, ratio of LD50 for sixth-instar larvae of Helicoverpa assulta YN4 to LD50 for sixth-instar larvae of Helicoverpa assulta at 39 to 12630 mg/l
Helicoverpa assulta [7] = assay: Resistance factor, ratio of LD50 for sixth-instar larvae of Helicoverpa assulta YN2 to LD50 for sixth-instar larvae of Helicoverpa assulta at 39 to 12630 mg/l
Helicoverpa assulta [8] = assay: Insecticidal activity against sixth-instar larvae of Helicoverpa assulta FJ1 at 39 to 12630 mg/l after 48 hr by chi-squared analysis
Helicoverpa assulta [9] = assay: Resistance factor, ratio of LD50 for sixth-instar larvae of Helicoverpa assulta YN3 to LD50 for sixth-instar larvae of Helicoverpa assulta at 39 to 12630 mg/l
Helicoverpa assulta [10] = assay: Insecticidal activity against sixth-instar larvae of Helicoverpa assulta SD2 at 39 to 12630 mg/l after 48 hr by chi-squared analysis
Helicoverpa assulta [11] = assay: Resistance factor, ratio of LD50 for sixth-instar larvae of Helicoverpa assulta GZ2 to LD50 for sixth-instar larvae of Helicoverpa assulta at 39 to 12630 mg/l
Helicoverpa assulta [12] = assay: Resistance factor, ratio of LD50 for sixth-instar larvae of Helicoverpa assulta YN8 to LD50 for sixth-instar larvae of Helicoverpa assulta at 39 to 12630 mg/l
Helicoverpa assulta [13] = assay: Insecticidal activity against sixth-instar larvae of Helicoverpa assulta HN2 at 39 to 12630 mg/l after 48 hr by chi-squared analysis
Helicoverpa assulta [14] = assay: Insecticidal activity against sixth-instar larvae of Helicoverpa assulta YN1 at 39 to 12630 mg/l after 48 hr by chi-squared analysis
Helicoverpa assulta [15] = assay: Insecticidal activity against sixth-instar larvae of Helicoverpa assulta YN7 at 39 to 12630 mg/l after 48 hr by chi-squared analysis
Helicoverpa assulta [16] = assay: Insecticidal activity against sixth-instar larvae of Helicoverpa assulta GZ2 at 39 to 12630 mg/l after 48 hr by chi-squared analysis
Helicoverpa assulta [17] = assay: Insecticidal activity against sixth-instar larvae of Helicoverpa assulta GZ4 at 1.8 to 183360 mg/l after 48 hr by chi-squared analysis
Helicoverpa assulta [18] = assay: Insecticidal activity against sixth-instar larvae of Helicoverpa assulta GZ3 at 1.8 to 183360 mg/l after 48 hr by chi-squared analysis
Helicoverpa assulta [19] = assay: Resistance factor, ratio of LD50 for sixth-instar larvae of Helicoverpa assulta HB1 to LD50 for sixth-instar larvae of Helicoverpa assulta at 1.8 to 183360 mg/l
Helicoverpa assulta [20] = assay: Resistance factor, ratio of LD50 for sixth-instar larvae of Helicoverpa assulta GZ4 to LD50 for sixth-instar larvae of Helicoverpa assulta at 1.8 to 183360 mg/l
Helicoverpa assulta [21] = assay: Insecticidal activity against sixth-instar larvae of Helicoverpa assulta AH2 at 1.8 to 183360 mg/l after 48 hr by chi-squared analysis
Helicoverpa assulta [22] = assay: Insecticidal activity against sixth-instar larvae of Helicoverpa assulta FJ2 at 1.8 to 183360 mg/l after 48 hr by chi-squared analysis
Helicoverpa assulta [23] = assay: Insecticidal activity against sixth-instar larvae of Helicoverpa assulta AH3 at 1.8 to 183360 mg/l after 48 hr by chi-squared analysis
Helicoverpa assulta [24] = assay: Resistance factor, ratio of LD50 for sixth-instar larvae of Helicoverpa assulta SD2 to LD50 for sixth-instar larvae of Helicoverpa assulta at 1.8 to 183360 mg/l
Helicoverpa assulta [25] = assay: Insecticidal activity against sixth-instar larvae of Helicoverpa assulta FJ1 at 1.8 to 183360 mg/l after 48 hr by chi-squared analysis
Helicoverpa assulta [26] = assay: Resistance factor, ratio of LD50 for sixth-instar larvae of Helicoverpa assulta GZ3 to LD50 for sixth-instar larvae of Helicoverpa assulta at 1.8 to 183360 mg/l
Helicoverpa assulta [27] = assay: Resistance factor, ratio of LD50 for sixth-instar larvae of Helicoverpa assulta HN1 to LD50 for sixth-instar larvae of Helicoverpa assulta at 1.8 to 183360 mg/l
Helicoverpa assulta [28] = assay: Insecticidal activity against sixth-instar larvae of Helicoverpa assulta YN3 at 21 to 3390 mg/l after 48 hr by chi-squared analysis
Helicoverpa assulta [29] = assay: Resistance factor, ratio of LD50 for sixth-instar larvae of Helicoverpa assulta AH3 to LD50 for sixth-instar larvae of Helicoverpa assulta at 21 to 3390 mg/l
Helicoverpa assulta [30] = assay: Insecticidal activity against sixth-instar larvae of Helicoverpa assulta YN6 at 21 to 3390 mg/l after 48 hr by chi-squared analysis
Helicoverpa assulta [31] = assay: Insecticidal activity against sixth-instar larvae of Helicoverpa assulta YN5 at 21 to 3390 mg/l after 48 hr by chi-squared analysis
Helicoverpa assulta [32] = assay: Insecticidal activity against sixth-instar larvae of Helicoverpa assulta at 21 to 3390 mg/l after 48 hr by chi-squared analysis
Helicoverpa assulta [33] = assay: Resistance factor, ratio of LD50 for sixth-instar larvae of Helicoverpa assulta YN3 to LD50 for sixth-instar larvae of Helicoverpa assulta at 21 to 3390 mg/l
Helicoverpa assulta [34] = assay: Resistance factor, ratio of LD50 for sixth-instar larvae of Helicoverpa assulta SD1 to LD50 for sixth-instar larvae of Helicoverpa assulta at 21 to 3390 mg/l
Helicoverpa assulta [35] = assay: Resistance factor, ratio of LD50 for sixth-instar larvae of Helicoverpa assulta GZ4 to LD50 for sixth-instar larvae of Helicoverpa assulta at 21 to 3390 mg/l

## CCOP(=S)(OCC)O/N=C(\C#N)c1ccccc1 [PHOXIM]
Helicoverpa assulta [1]
  Ratio: 14.3
Helicoverpa assulta [2]
  LD90: 65.3 µg/g
Helicoverpa assulta [2]; Helicoverpa assulta, GZ3, 48 h
  LD50: 20.9 mg/kg
Helicoverpa assulta [3]
  LD90: 105 µg/g
Helicoverpa assulta [3]; Helicoverpa assulta, YN8, 48 h
  LD50: 40.3 mg/kg
Helicoverpa assulta [4]
  LD90: 819 µg/g
Helicoverpa assulta [4]; Helicoverpa assulta, AH1, 48 h
  LD50: 119 mg/kg
Helicoverpa assulta [5]
  Ratio: 7.1
Helicoverpa assulta [6]
  Ratio: 16.9
Helicoverpa assulta [7]
  Ratio: 14.9
Helicoverpa assulta [8]
  LD90: 62.2 µg/g
Helicoverpa assulta [8]; Helicoverpa assulta, FJ1, 48 h
  LD50: 16.7 mg/kg
Helicoverpa assulta [9]
  Ratio: 12.5
Helicoverpa assulta [10]
  LD90: 50.5 µg/g
Helicoverpa assulta [10]; Helicoverpa assulta, SD2, 48 h
  LD50: 17.2 mg/kg
Helicoverpa assulta [11]
  Ratio: 10.8
Helicoverpa assulta [12]
  Ratio: 17.2
Helicoverpa assulta [13]
  LD90: 19.9 µg/g
Helicoverpa assulta [13]; Helicoverpa assulta, HN2, 48 h
  LD50: 8.22 mg/kg
Helicoverpa assulta [14]
  LD90: 57.3 µg/g
Helicoverpa assulta [14]; Helicoverpa assulta, YN1, 48 h
  LD50: 20.4 mg/kg
Helicoverpa assulta [15]
  LD90: 131 µg/g
Helicoverpa assulta [15]; Helicoverpa assulta, YN7, 48 h
  LD50: 41.8 mg/kg
Helicoverpa assulta [16]
  LD90: 101 µg/g
Helicoverpa assulta [16]; Helicoverpa assulta, GZ2, 48 h
  LD50: 25.3 mg/kg

## CC(C)C(C(=O)OC(C#N)c1cccc(Oc2ccccc2)c1)c1ccc(Cl)cc1 (centres undefined) [FENVALERATE]
Helicoverpa assulta [17]
  LD90: 133 µg/g
Helicoverpa assulta [17]; Helicoverpa assulta, GZ4, 48 h
  LD50: 56.2 mg/kg
Helicoverpa assulta [18]
  LD90: 725 µg/g
Helicoverpa assulta [18]; Helicoverpa assulta, GZ3, 48 h
  LD50: 133 mg/kg
Helicoverpa assulta [19]
  Ratio: 5.83
Helicoverpa assulta [20]
  Ratio: 347
Helicoverpa assulta [21]
  LD90: 259 µg/g
Helicoverpa assulta [21]; Helicoverpa assulta, AH2, 48 h
  LD50: 67.3 mg/kg
Helicoverpa assulta [22]
  LD90: 4.91 µg/g
Helicoverpa assulta [22]; Helicoverpa assulta, FJ2, 48 h
  LD50: 2.08 mg/kg
Helicoverpa assulta [23]
  LD90: 470 µg/g
Helicoverpa assulta [23]; Helicoverpa assulta, AH3, 48 h
  LD50: 251 mg/kg
Helicoverpa assulta [24]
  Ratio: 12
Helicoverpa assulta [25]
  LD90: 5.67 µg/g
Helicoverpa assulta [25]; Helicoverpa assulta, FJ1, 48 h
  LD50: 1.46 mg/kg
Helicoverpa assulta [26]
  Ratio: 824
Helicoverpa assulta [27]
  Ratio: 64.9

## CNC(=O)ON=C(C)SC [METHOMYL]
Helicoverpa assulta [28]
  LD90: 78.5 µg/g
Helicoverpa assulta [28]; Helicoverpa assulta, YN3, 48 h
  LD50: 33.3 mg/kg
Helicoverpa assulta [29]
  Ratio: 12.7
Helicoverpa assulta [30]
  LD90: 66.2 µg/g
Helicoverpa assulta [30]; Helicoverpa assulta, YN6, 48 h
  LD50: 19.7 mg/kg
Helicoverpa assulta [31]
  LD90: 37.7 µg/g
Helicoverpa assulta [31]; Helicoverpa assulta, YN5, 48 h
  LD50: 14.3 mg/kg
Helicoverpa assulta [32]
  LD90: 4.1 µg/g
Helicoverpa assulta [32]; Helicoverpa assulta, 48 h
  LD50: 1.45 mg/kg
Helicoverpa assulta [33]
  Ratio: 23.1
Helicoverpa assulta [34]
  Ratio: 3.93
Helicoverpa assulta [35]
  Ratio: 11.5
